This is an account of results in patent US20240384268A1, “Oligonucleotides” (Hudson Institute of Medical Research, priority 2021, published 2024).

In the data set the target is cGAS (Homo sapiens, UniProt Q8N884). Nature of the data set: ISD70-driven IP-10 (and IFN-β) production in THP-1 cells, ELISA. It is filed as cell-based. More on the design: endogenous in cells; host or cells: THP-1 (undifferentiated). The conditions noted are these: MOE-modified ASO at 100 nM; averaged IP-10 levels relative to ISD70 condition.
Sequence of cGAS (Q8N884 whole entry): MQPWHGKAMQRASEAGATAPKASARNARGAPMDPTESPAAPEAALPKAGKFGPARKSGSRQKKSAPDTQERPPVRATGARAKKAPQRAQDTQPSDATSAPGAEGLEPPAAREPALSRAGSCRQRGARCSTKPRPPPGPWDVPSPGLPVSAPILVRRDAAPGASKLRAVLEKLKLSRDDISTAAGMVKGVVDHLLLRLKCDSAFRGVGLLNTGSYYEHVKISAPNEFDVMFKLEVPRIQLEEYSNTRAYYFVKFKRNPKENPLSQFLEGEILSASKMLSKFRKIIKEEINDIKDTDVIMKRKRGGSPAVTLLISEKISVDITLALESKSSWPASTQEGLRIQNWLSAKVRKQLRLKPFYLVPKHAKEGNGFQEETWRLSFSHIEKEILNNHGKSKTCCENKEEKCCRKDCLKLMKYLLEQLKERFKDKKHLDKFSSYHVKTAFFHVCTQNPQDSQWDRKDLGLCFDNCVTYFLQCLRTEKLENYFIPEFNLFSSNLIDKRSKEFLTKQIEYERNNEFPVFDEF
Regarding “AACACTTCGTGGGGTCCTTT (antisense; 2'-MOE modified, pattern not given here) [HPRT-664 MOE]”, the “cGAS 100 nM” value is 0.615. In the case of “AATCCGCCCAAAGGGAACTG (antisense; 2'-MOE modified, pattern not given here) [HPRT-1027 MOE]”, the “cGAS 100 nM” value is recorded as 0.494.

“ACAACCCCTTTCACCATCCC (antisense; 2'-MOE modified, pattern not given here) [MB21D1-689 MOE]”: the “cGAS 100 nM” value is listed as 0.658. For the sequence “ACAGTGTTGAGATACTCGGG (antisense; 2'-MOE modified, pattern not given here) [EGFR-3652 MOE]”, the “cGAS 100 nM” value turned out to be 0.297. On to “ACCCACTTGGCAGACCATCA (antisense; 2'-MOE modified, pattern not given here) [CTNN2B-1575 MOE]”, for which the “cGAS 100 nM” value was 0.571. For “ACTGACTGTCTTGAGGGTTC (antisense; 2'-MOE modified, pattern not given here) [MB21D1-1483 MOE]”, the “cGAS 100 nM” value is recorded as 0.221.

As to “AGATCTGGCAGCCCATCAAC (antisense; 2'-MOE modified, pattern not given here) [CTNN2B-2516 MOE]”, the “cGAS 100 nM” value came to 0.677. As for “AGGTCTTGGCTTCGTGGAGC (antisense; 2'-MOE modified, pattern not given here) [MB21D1-522 MOE]”, the “cGAS 100 nM” value amounted to 0.118. As to “ATCCAACACTTCGTGGGGTC (antisense; 2'-MOE modified, pattern not given here) [HPRT-668 MOE]”, the “cGAS 100 nM” value came to 0.744. Regarding “ATGTCCCCTGTTGACTGGTC (antisense; 2'-MOE modified, pattern not given here) [HPRT-489 MOE]”, the “cGAS 100 nM” value is on record as 0.574. The same measure for “ATGTCCCGCCACTGGATGCT (antisense; 2'-MOE modified, pattern not given here) [EGFR-727 MOE]”: 0.549; for “ATGTGATGGCCTCCCATCTC (antisense; 2'-MOE modified, pattern not given here) [HPRT-333 MOE]”: 0.439; for “CAACACTTCGTGGGGTCCTT (antisense; 2'-MOE modified, pattern not given here) [HPRT-665 MOE]”: 0.686. Consider “CAAGGCCCTTCGCACTTCTT (antisense; 2'-MOE modified, pattern not given here) [EGFR-1225 MOE]”, for which the “cGAS 100 nM” value is listed as 0.490. With “CAATGTGATGGCCTCCCATC (antisense; 2'-MOE modified, pattern not given here) [HPRT-335 MOE]”, the “cGAS 100 nM” value is given as 0.362. Turning to “CACCCACTTGGCAGACCATC (antisense; 2'-MOE modified, pattern not given here) [CTNN2B-1576 MOE]”, the “cGAS 100 nM” value is recorded as 0.658.

In the case of “CAGATAGCACCTTCAGCACT (antisense; 2'-MOE modified, pattern not given here) [CTNN2B-1294 MOE]”, the “cGAS 100 nM” value came out at 0.388. The same measure for “CCAACACTTCGTGGGGTCCT (antisense; 2'-MOE modified, pattern not given here) [HPRT-666 MOE]”: 0.557; for “CGTGTCTGGAAGCTTCCTTT (antisense; 2'-MOE modified, pattern not given here) [CTNN2B-808 MOE]”: 0.426. Regarding “CTCTTGAAGCATCGTATCAC (antisense; 2'-MOE modified, pattern not given here) [CTNN2B-3648 MOE]”, the “cGAS 100 nM” value is 0.791. The result for “CTGTGATCTTGACATGCTGC (antisense; 2'-MOE modified, pattern not given here) [EGFR-2790 MOE]” reads 0.180.

On to “CTTACTTTCCGAGGTGTCCA (antisense; 2'-MOE modified, pattern not given here) [CAMSAP1-1739 MOE]”, for which the “cGAS 100 nM” value turned out to be 0.473.

Turning to “GAACCACGTCTGCTCTAACA (antisense; 2'-MOE modified, pattern not given here) [CAMSAP1-1635 MOE]”, the “cGAS 100 nM” value is listed as 0.518. With “GAGGTCTTGGCTTCGTGGAG (antisense; 2'-MOE modified, pattern not given here) [MB21D1-523 MOE]”, the “cGAS 100 nM” value is recorded as 0.380. For the sequence “GAGTCTCTGGAGCTTCCTCT (antisense; 2'-MOE modified, pattern not given here) [CAMSAP1-2456 MOE]”, the “cGAS 100 nM” value is 0.250. For “GATGCTCCTCGGTCTCCCTT (antisense; 2'-MOE modified, pattern not given here) [CAMSAP1-1850 MOE]”, the “cGAS 100 nM” value was 0.413. Regarding “GATGGCCTCCCATCTCCTTC (antisense; 2'-MOE modified, pattern not given here) [HPRT-329 MOE]”, the “cGAS 100 nM” value was determined as 0.687. For “GCCGCTTTTCTGTCTGGTTC (antisense; 2'-MOE modified, pattern not given here) [CTNN2B-311 MOE]”, the “cGAS 100 nM” value is given as 0.401.

For “GCGACTATACGCGCAATATG (antisense; 2'-MOE modified, pattern not given here) [NC5 2′MOE]”, the “cGAS 100 nM” value is 0.720. In the case of “GCGGAGGTCTTGGCTTCGTG (antisense; 2'-MOE modified, pattern not given here) [MB21D1-526 MOE]”, the “cGAS 100 nM” value was 0.346. With “GCGTATTATAGCCGATTAAC (antisense; 2'-MOE modified, pattern not given here) [NC1 2′MOE]”, the “cGAS 100 nM” value was 0.504.

As to “GCGTGTCTGGAAGCTTCCTT (antisense; 2'-MOE modified, pattern not given here) [CTNN2B-809 MOE]”, the “cGAS 100 nM” value is 0.241. As to “GCTTCAGGCGCTGCCTTGCC (antisense; 2'-MOE modified, pattern not given here) [CAMSAP1-2709 MOE]”, the “cGAS 100 nM” value is listed as 0.510. The same measure for “GGAGATTTCAGAGCAGCTTC (antisense; 2'-MOE modified, pattern not given here) [EGFR-4885 MOE]”: 0.466.

Regarding “GGAGCTTCGAGGCCCCAGGC (MOE modified, pattern not given here) [MB21D1-616 MOE]”, the “cGAS 100 nM” value was found to be 0.117. With “GGAGGTCTTGGCTTCGTGGA (antisense; 2'-MOE modified, pattern not given here) [MB21D1-524 MOE]”, the “cGAS 100 nM” value was 0.450. For “GGCATCCACCACGTCGTCCA (antisense; 2'-MOE modified, pattern not given here) [EGFR-3266 MOE]”, the “cGAS 100 nM” value was 0.478. Turning to “GGGAAAGGTTATGCAAGGTC (antisense; 2'-MOE modified, pattern not given here) [CTNN2B-916 MOE]”, the “cGAS 100 nM” value turned out to be 0.156. On to “GGTCCATACCCAAGGCATCC (antisense; 2'-MOE modified, pattern not given here) [CTNN2B-2446 MOE]”, for which the “cGAS 100 nM” value came to 0.531.

In the case of “GGTGGTCCACAACCCCTTTC (antisense; 2'-MOE modified, pattern not given here) [MB21D1-697 MOE]”, the “cGAS 100 nM” value was 0.292. For “GGTGGTGGCCACCCATCTCA (antisense; 2'-MOE modified, pattern not given here) [CTNN2B-2479 MOE]”, the “cGAS 100 nM” value is 0.456. For the sequence “GGTGTCCTTGCACGTGGCTT (antisense; 2'-MOE modified, pattern not given here) [EGFR-1016 MOE]”, the “cGAS 100 nM” value is recorded as 0.315. As to “GTCCACATCCTGTGGCTCGT (antisense; 2'-MOE modified, pattern not given here) [CAMSAP1-2906 MOE]”, the “cGAS 100 nM” value was 0.455.

Consider “GTCCTTGCACGTGGCTTCGT (antisense; 2'-MOE modified, pattern not given here) [EGFR-1013 MOE]”, for which the “cGAS 100 nM” value is reported as 0.374.

As for “GTCTTGGCTTCGTGGAGCAG (antisense; 2'-MOE modified, pattern not given here) [MB21D1-520 MOE]”, the “cGAS 100 nM” value came to 0.291.

For the sequence “GTGTCCTTGCACGTGGCTTC (antisense; 2'-MOE modified, pattern not given here) [EGFR-1015 MOE]”, the “cGAS 100 nM” value was found to be 0.384. The same measure for “GTGTCTTCATCGGCCCTGCC (antisense; 2'-MOE modified, pattern not given here) [CAMSAP1-2113 MOE]”: 0.606; for “TAGGCACTTTGCCTCCTTCT (antisense; 2'-MOE modified, pattern not given here) [EGFR-2859 MOE]”: 0.378; for “TAGTCAAGGGCATATCCTAC (antisense; 2'-MOE modified, pattern not given here) [HPRT-732 MOE]”: 0.848.

As to “TCAAAGGACTGAGGAAAGGG (antisense; 2'-MOE modified, pattern not given here) [CAMSAP1-6273 MOE]”, the “cGAS 100 nM” value stood at 0.634. For the sequence “TCCAACACTTCGTGGGGTCC (antisense; 2'-MOE modified, pattern not given here) [HPRT-667 MOE]”, the “cGAS 100 nM” value worked out at 0.799. Regarding “TCGCACTTCAGTCTGAGCAG (antisense; 2'-MOE modified, pattern not given here) [MB21D1-719 MOE]”, the “cGAS 100 nM” value came to 0.305.

For “TGTCCTTGCACGTGGCTTCG (antisense; 2'-MOE modified, pattern not given here) [EGFR-1014 MOE]”, the “cGAS 100 nM” value was 0.515.

As to “TGTCTTCATCGGCCCTGCCT (antisense; 2'-MOE modified, pattern not given here) [CAMSAP1-2112 MOE]”, the “cGAS 100 nM” value stood at 0.557. With “TGTGATGGCCTCCCATCTCC (antisense; 2'-MOE modified, pattern not given here) [HPRT-332 MOE]”, the “cGAS 100 nM” value is listed as 0.438. Take “TTCTGCAGCTTCCTTGTCCT (antisense; 2'-MOE modified, pattern not given here) [CTNN2B-2136 MOE]”: the “cGAS 100 nM” value was determined as 0.821.
